A word on the IC50: it is the concentration needed to halve the response being measured. Lower therefore signals greater potency. Broadly, the inhibition is the relative decrease from the control value, in per cent.

This note sets out measurements from article PMC5567267, “Discovery of a potent protein kinase D inhibitor: insights in the binding mode of pyrazolo[3,4-d]pyrimidine analogues” (MedChemComm, 2017).

Assay [1] deals with T1, PKD2 (Homo sapiens, UniProt Q9BZL6).
T1 construct: made in house; host or cells: HEK293T cells, transient transfection with pDEST27-PRKD2, stimulated with 500 nM PDB before lysis
T1 sequence (Q9BZL6 1-878): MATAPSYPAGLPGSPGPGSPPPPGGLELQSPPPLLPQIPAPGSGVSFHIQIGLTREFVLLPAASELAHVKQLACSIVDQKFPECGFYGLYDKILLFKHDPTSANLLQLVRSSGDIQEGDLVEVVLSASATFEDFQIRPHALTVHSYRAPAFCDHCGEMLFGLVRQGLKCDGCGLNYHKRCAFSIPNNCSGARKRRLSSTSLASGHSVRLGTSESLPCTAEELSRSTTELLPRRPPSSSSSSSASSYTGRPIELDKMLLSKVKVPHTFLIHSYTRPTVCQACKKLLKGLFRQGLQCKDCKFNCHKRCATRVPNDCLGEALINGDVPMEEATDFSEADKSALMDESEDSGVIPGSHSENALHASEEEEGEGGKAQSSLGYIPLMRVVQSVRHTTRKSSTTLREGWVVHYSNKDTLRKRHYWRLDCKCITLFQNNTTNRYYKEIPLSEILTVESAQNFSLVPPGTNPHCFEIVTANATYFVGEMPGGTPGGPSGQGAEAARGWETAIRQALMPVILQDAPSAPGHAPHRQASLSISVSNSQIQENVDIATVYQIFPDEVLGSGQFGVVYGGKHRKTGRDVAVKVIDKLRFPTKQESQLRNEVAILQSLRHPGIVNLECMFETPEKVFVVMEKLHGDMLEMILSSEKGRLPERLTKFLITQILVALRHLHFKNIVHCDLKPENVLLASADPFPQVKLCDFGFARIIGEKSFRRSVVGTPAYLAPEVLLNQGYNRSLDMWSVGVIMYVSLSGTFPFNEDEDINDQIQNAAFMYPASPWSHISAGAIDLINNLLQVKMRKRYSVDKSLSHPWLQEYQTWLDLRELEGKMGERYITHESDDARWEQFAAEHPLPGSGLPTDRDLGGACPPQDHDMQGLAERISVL
Kind of assay: Cellular screening assay using phospho-cortactin (Ser-298) as a readout. In kind it is cell-based. The conditions noted are these: HEK293T cells co-transfected with FLAG-PRKD2 and myc-CTTN; for cellular activity against PKD2 (in words): pSer-298 cortactin western blot. An excerpt: Therefore we used a cellular assay in which we were able to specifically follow PKD mediated phosphorylation of cortactin, a known PKD substrate, at Ser-298.[15] […] Cortactin phosphorylation at Ser-298 in our assay was PKD-specific, since co-transfection of PKD and cortactin was necessary to produce an adequate signal (data not shown). We selected four compounds for further validation in a cellular assay against PKD2 (Fig. 5).
Fig. 5 The effect of 1-NM-PP1 analogues on PKD mediated phosphorylation of cortactin at Ser-298. HEK293T cells co-transfected with FLAG-PRKD2 and myc-CTTN were pretreated with the indicated compounds for 30 min prior to stimulation with 500 nM Phorbol 12,13-dibutyrate (PDB) for 15 min. Phosphorylation of cortactin was followed via western blot using a home-made pSer-298 antibody and subsequently reprobed for total cortactin (anti-c-Myc; 9E10) and PKD (anti-FLAG M2). Quantification of pSer-298/c-Myc signals of three independent experiments is shown in the graph below. […]
Cellular screening assay using phospho-cortactin as a readout
HEK293T cells were seeded in a 12-well plate at 150.000 cells/well. The next day, cells were transfected with 0.5µg of pcDNA3-Myc-CTTN and 0.5µg of pdcDNA-FLAG-PRKD2. Forty-eight hours after transfection, cells were incubated with compound at the indicated concentrations for 30 min, followed by stimulation with 500nM phorbol 12,13-dibutyrate (PDB) for 15 min. Subsequently, cells were lysed in 50mM Tris pH 7.4, 15mM EDTA, 150mM NaCl, 0.1% (v/v) NP-40 and 25% (v/v) glycerol. Protein quantitation was determined via a Bradford assay. Equal amounts of lysate (30µg) were loaded on a SDS-polyacrylamide gel and subjected to immunoblotting. Blots were probed with Cortactin pSer-298 antibody (home-made) and anti-tubulin antibody (Sigma, St. Louis, Missouri). Subsequently, blots were stripped and reprobed with anti-Myc 9E10 (Sigma, St.
Louis, Missouri) for cortactin and anti-FLAG M2 (Sigma, St. Louis, Missouri) for PKD2.
A general note: A western blot detects proteins with antibodies after separation by electrophoresis.

Assay [2] has as its target T1, PKD2. Kind of assay: PKD2 screening assay (in vitro radiometric kinase assay). In kind it is biochemical. The note with it: for remaining activity at 1 µM: 10 min. The method, then: All 35 described analogues were characterized in vitro via an initial screening at 1 μM against PKD2. […]
scanning of a coomassie stained SDS-polyacrylamide gel.
An in vitro radiometric assay was used to determine the inhibition of PKD in presence of various compounds at a […]
determinations. Reactions were carried out in 40µl of a mixture containing 50mM Tris-HCl pH 7.4, 10mM MgCl2, 50ng of PDB stimulated GST-PKD2, 4µg/ml Syntide-2 (Sigma Aldrich, St. Louis, USA), 25µM ATP and 2µCi [γ-32P]ATP (Perkin-Elmer, Massachusetts, USA). After 10’ the reaction was stopped by spotting 30µl of the reaction on whatmann P81 filter paper. The filter papers were washed 3 times in 0.5% phosphoric acid, followed by one wash in 100% acetone. Subsequently the papers were air-dried and counted using the Tri-Carb 2810 TR scintillation counter (Perkin-Elmer). Percentage of PKD2 inhibition was determined relative to a condition where no inhibitor was added (0,1% dimethylsulfoxide (DMSO)). Graphs were plotted and IC50 values were determined using the GraphPad software package (Prism). […]

[3] abbreviates: ESI table, initial screening of all analogues at 1µM, read-out: % PKD2 activity remaining (1µM) (average ±SD).
Where [4] appears, read: compound at 1 μM, PDB stimulated GST-PKD2, Syntide-2, 25µM ATP, relative to no inhibitor (DMSO), read-out: % PKD 2 activity remaining (1 μM) (Average ± SD).
Where [5] appears, read: PDB stimulated GST-PKD2, Syntide-2, 25µM ATP, radiometric.

Where two headings read alike, the source gives them in different places.

Consider `CC(C)(C)n1nc(-c2cc3ccccc3s2)c2c(N)ncnc21` [Compound 6l], for which the “cellular activity against PKD2 (in words)” value (shortened to “cellular activity”) in assay [1] is listed as “did not show cellular activity”. Besides, the remaining activity at 1 µM in assay [2] (setting [3]) and in assay [2] (setting [4]) was 53 ± 7.1% throughout. Besides, it took 2210 nM to reach half-maximal inhibition in assay [2] (setting [5]) (IC50).

Regarding `CC(C)(C)n1nc(Cc2ccccc2Br)c2c(N)ncnc21` [Compound 7e, 3-(2-bromobenzyl)-1-tert-butyl-1H-pyrazolo[3,4-d]pyrimidin-4-amine], the remaining activity at 1 µM in assay [2] (setting [3]) and in assay [2] (setting [4]) was 43 ± 6.6% each time. The same compound showed a half-inhibitory concentration (IC50) in assay [2] (setting [5]) of 535 nM.

In the case of `CC(C)(C)n1nc(Cc2cccc(Br)c2)c2c(N)ncnc21` [Compound 7f, 3-(3-bromobenzyl)-1-tert-butyl-1H-pyrazolo[3,4-d]pyrimidin-4-amine], the remaining activity at 1 µM in assay [2] (setting [3]) was 59 ± 3.3%.

In the case of `CC(C)(C)n1nc(Cc2cccc(Cl)c2Cl)c2c(N)ncnc21` [Compound 7g, 1-tert-butyl-3-(2,3-dichlorobenzyl)-1H-pyrazolo[3,4-d]pyrimidin-4-amine], in assay [2] (setting [3]), the remaining activity at 1 µM turned out to be 90 ± 5.1%.

On to `CC(C)(C)n1nc(Cc2ccc(Cl)c(Cl)c2)c2c(N)ncnc21` [Compound 7h, 1-tert-butyl-3-(3,4-dichlorobenzyl)-1H-pyrazolo[3,4-d]pyrimidin-4-amine], for which the remaining activity at 1 µM in assay [2] (setting [3]) stood at 78 ± 3.3%.

With `CC(C)(C)n1nc(CCCc2ccccc2)c2c(N)ncnc21` [Compound 7i, 1-tert-butyl-3-(3-phenylpropyl)-1H-pyrazolo[3,4-d]pyrimidin-4-amine], the remaining activity at 1 µM in assay [2] (setting [3]) and in assay [2] (setting [4]) was 101 ± 8.3% in each case. In addition, in assay [2] (setting [5]), the IC50 was above 50000 nM.

Turning to `Cn1nc(CCCc2ccccc2)c2c(N)ncnc21` [Compound 7j, 1-methyl-3-(3-phenylpropyl)-1H-pyrazolo[3,4-d]pyrimidin-4-amine], the remaining activity at 1 µM in assay [2] (setting [3]) came to 101 ± 3.3%.

As for `CC(C)(C)n1nc(CCCCc2ccccc2)c2c(N)ncnc21` [Compound 7k, 1-tert-butyl-3-(4-phenylbutyl)-1H-pyrazolo[3,4-d]pyrimidin-4-amine], the results for the remaining activity at 1 µM in assay [2] (setting [3]) and in assay [2] (setting [4]) were 92.8 ± 5.8% and 93 ± 5.8%, respectively. Besides, the IC50 in assay [2] (setting [5]) was above 50000 nM.

For `Cn1nc(CCCCc2ccccc2)c2c(N)ncnc21` [Compound 7l, 1-methyl-3-(4-phenylbutyl)-1H-pyrazolo[3,4-d]pyrimidin-4-amine], in assay [2] (setting [3]), the remaining activity at 1 µM is 98 ± 6.4%.

Regarding `Cn1nc(Cc2cccc3ccccc23)c2c(N)ncnc21` [Compound 7m, 1-methyl-3-(1-naphthylmethyl)-1H-pyrazolo[3,4-d]pyrimidin-4-amine], the remaining activity at 1 µM in assay [2] (setting [3]) and in assay [2] (setting [4]) was 64 ± 3.9% each time. Moreover, half-maximal inhibition in assay [2] (setting [5]) (IC50) was put at 4660 nM.

Take `CCCCNc1nc(N)c2c(-c3ccccc3)nn(C(C)(C)C)c2n1` [Compound 13a, N6-butyl-1-tert-butyl-3-phenyl-1H-pyrazolo[3,4-d]pyrimidine-4,6-diamine]: in assay [2] (setting [3]), the remaining activity at 1 µM is 77 ± 5.1%.

As for `CCCCNc1nc(N)c2c(-c3cccc(Cl)c3)nn(C(C)(C)C)c2n1` [Compound 13b, N6-butyl-1-tert-butyl-3-(3-chlorophenyl)-1H-pyrazolo[3,4-d]pyrimidine-4,6-diamine], the remaining activity at 1 µM in assay [2] (setting [3]) turned out to be 81 ± 6.6%.

For the compound `CCCCNc1nc(N)c2c(-c3ccc(F)cc3)nn(C(C)(C)C)c2n1` [Compound 13c, N6-butyl-1-tert-butyl-3-(4-fluorophenyl)-1H-pyrazolo[3,4-d]pyrimidine-4,6-diamine], the remaining activity at 1 µM in assay [2] (setting [3]) worked out at 69 ± 8.3%.

As to `CCCCNc1nc(N)c2c(-c3ccc(OC)cc3)nn(C(C)(C)C)c2n1` [Compound 13d, N6-butyl-1-tert-butyl-3-(4-methoxyphenyl)-1H-pyrazolo[3,4-d]pyrimidine-4,6-diamine], the remaining activity at 1 µM in assay [2] (setting [3]) came out at 80 ± 2.5%.

In the case of `CCCCNc1nc(N)c2c(-c3ccsc3)nn(C(C)(C)C)c2n1` [Compound 13e, N6-butyl-1-tert-butyl-3-(3-thienyl)-1H-pyrazolo[3,4-d]pyrimidine-4,6-diamine], the remaining activity at 1 µM in assay [2] (setting [3]) is 82 ± 7.2%.

Consider `CCCCNc1nc(N)c2c(-c3cccc(C(F)(F)F)c3)nn(C(C)(C)C)c2n1` [Compound 13f, N6-butyl-1-tert-butyl-3-[3-(trifluoromethyl)phenyl]-1H-pyrazolo[3,4-d]pyrimidine-4,6-diamine], for which, in assay [2] (setting [3]), the remaining activity at 1 µM is 91 ± 8.5%.

For `CCCCNc1nc(N)c2c(-c3ccc4ccccc4c3)nn(C(C)(C)C)c2n1` [Compound 13g, N6-butyl-1-tert-butyl-3-(2-naphthyl)-1H-pyrazolo[3,4-d]pyrimidine-4,6-diamine], the remaining activity at 1 µM in assay [2] (setting [3]) amounted to 76 ± 2.7%.

Regarding `CCCCNc1nc(N)c2c(-c3cccc4ccccc34)nn(C(C)(C)C)c2n1` [Compound 13h, N6-butyl-1-tert-butyl-3-(1-naphthyl)-1H-pyrazolo[3,4-d]pyrimidine-4,6-diamine], the “cellular activity” value in assay [1] is “negligible cellular activity”. In addition, the remaining activity at 1 µM in assay [2] (setting [3]) and in assay [2] (setting [4]) was 89 ± 6.2% each time. Also, half-maximal inhibition in assay [2] (setting [5]) (IC50) required 8170 nM.

On to `CC(C)(C)n1nc(-c2c[nH]c3ccccc23)c2c(N)ncnc21` [Compound 18, 1-tert-butyl-3-(1H-indol-3-yl)-1H-pyrazolo[3,4-d]pyrimidin-4-amine], for which, in assay [1], the “cellular activity” value is reported as “dose-dependent inhibition”. Also, the inhibition at 40 µM in assay [1] (HEK-293T, 40 μM compound, 30 min pretreatment, 500 nM PDB 15 min, read-out: inhibition of PKD2 mediated cortactin Ser-298 phosphorylation) was found to be 85%. For the same compound, the remaining activity at 1 µM in assay [2] (setting [3]) and in assay [2] (setting [4]) was 8 ± 0.8% in each case. For the same compound, the figures for the half-inhibitory concentration (IC50) in assay [2] (setting [5]) and in assay [2] (in vitro potency as stated in the conclusions) were 33 nM and around 33 nM, respectively. Also, the “fold increase in potency compared to 1-NM-PP1” value in assay [2] (PKD2 IC50 relative to 1-NM-PP1) was 10 fold.
